Literature values, collected in patent US20130281523A1, “LOW DOSE CANNABINOID MEDICAMENTS” (priority 2010, published 2013).

System: rat model of sleep apnea
Conditions: 10 mg/kg intraperitoneal injection

CCCCCc1cc(O)c2c(c1)OC(C)(C)[C@@H]1CCC(C)=C[C@@H]21 [Dronabinol, Delta-9-tetrahydrocannabinol]
Breathing cessation during non-REM (NREM) sleep: reduced breathing cessation
